The values that follow come from patent publication US20260193644A1, “Compositions and Methods For Modulation of Tumor Suppressors and Oncogenes” (FLAGSHIP PIONEERING INNOVATIONS VII, LLC, priority 2022, published 2026).

Several values for one entry are separate records, joined by “and”; a condition that tells them apart may be missing. Equal entries are not always repeated.

Assay type in all cases: cell-based
Experiment [1] deals with U2OS cells. The experiment can be described thus: Caspase-Glo 3/7 apoptosis assay, peptide-treated U2OS cells. The conditions noted are these: for z-score compared to vehicle control (peptides inducing significant apoptosis): listed = significant. The method, then: (§1) Cell Culture: Tumor cell lines HCT-116 (Colon Cancer Cell line, ATCC) and U2OS (Osteoscarcoma Cell line, ATCC) cells were grown adherently in ATCC-formulated McCoy's 5a medium supplemented with 10% FBS and 1× penicillin-streptomycin at 37° C. (5% CO2). Jurkat cells (acute T-cell leukemia cell line, ATCC) were grown as suspension cultures in ATCC-formulated RPMI-1640 supplemented with 10% FBS and 1× penicillin-streptomycin at 37° C. (5% CO2). HEP-G2 cells (Liver Cancer Cell line, ATCC) cells were grown adherently in ATCC-formulated Eagle's Minimum Essential Medium (EMEM) supplemented with 10% FBS and 1× penicillin-streptomycin at 37° C. (5% CO2).
(§2) Peptide Treatment: Target protein SEQ ID NO: 37997 was synthesized through Fluorenylmethyloxycarbonyl (Fmoc) protection group chemistry using Solid Phase Peptide Synthesis (SPPS). 5 μM of target peptide and control peptides were added to a 96 well plate containing 10,000 cells (100 μL/well). A white-walled 96-well plate adequate for cell culture and compatible with the luminometer was used. (Corning)
(§3) Apoptosis Assay: Following 24 hrs of peptide treatment, an equal volume reconstituted Caspase-Glo® 3/7 assay reagent mixture (Promega) was added to the cells. The contents of wells were gently mixed using a plate shaker at 300-500 rpm for 30 seconds. The plate was then Incubate at room temperature for 3 hours. The treated plates were then read for luminescence on Promega™ GloMax® Plate Reader. A blank reaction that contained caspase-Glo® 3/7 reagent, vehicle and cell culture medium without cells was used to measure background luminescence. The blank reaction values were subtracted from experimental values. A negative control that contained caspase-Glo® 3/7 reagent and vehicle-treated cells in medium was included to determine the basal caspase activity of the cell culture system. Significant difference in apoptosis was determined using ANOVA analysis by comparing cells treated with SEQ ID NO: 37997 peptide to cells treated with an irrelevant control peptide, or vehicle control treated cells.

Another experiment concerns HCT-116 cells. The experiment is described as follows: Caspase-Glo 3/7 apoptosis assay, peptide-treated HCT-116 cells. The conditions noted are these: for peptides inducing significant apoptosis (z-score vs vehicle control): listed = significant. The method, then:
as §1, §2, §3

For a further experiment, the system named is Jurkat cells. The experiment can be described thus: Caspase-Glo 3/7 apoptosis assay, peptide-treated Jurkat cells. The conditions noted are these: listed = significant. The method, then:
as §1, §2, §3

The subject of the next experiment is HCT116 cells. The experiment is described as follows: WST-1 proliferation assay on HCT116 cells treated with peptide. The method, then: Proliferation: HCT-116 cells were plated in 96 well plate (5,000 cells/well) grown in standard media supplemented with 10% FBS. After 48 hours incubation at 37° C. (5% CO2), the cells are subjected to the WST-1 ([…]) assay. The WST-1 assay (Sigma) is a measure of the metabolic activity (i.e. proliferative rate) of cells. […]

For experiment [2], the system named is U2OS cells. The experiment is described as follows: WST-1 proliferation assay on U2OS cells treated with peptide.
Experiment [3] relates to HCT116 colon cancer cell line. The experiment is described as follows: WST-1 proliferation assay on HCT116 cells stably over-expressing target protein. Conditions: 48 hours. The method, then:
Over-expression: Stable over-expression tumor cell lines were made by transduction using lentivirus. For virus production, HEK-293T cells were cultured in DMEM with high glucose and GlutaMAX™ medium (ThermoFisher) supplemented with 10% FBS. After 24 h, cells were transfected using lipofectamine 3000 (ThermoFisher) of Lentiviral packaging plasmid mix (CELLECTA) and pGenLenti plasmids (GenScript Inc) containing: 1) no insert, 2) Target Protein encoding sequence, and 3) the AP2A1 protein (positive control for cell proliferation; https://doi.org/10.1038/sj.one.1205216), into HCT116 (Colon cancer cell line; ATCC). A Myc-tag (EQKLISEEDL) was added to the c-terminus of the expressed protein. After 48 hr post-transfection, culture media containing viruses was collected, loaded onto a 10 ml syringe and filtered through a 0.45 μm filter. For cell transduction, HCT116 colorectal cancer cells were seeded in 6-well plates, the virus was added to the cells. After post-transduction, stable cell mixed populations are selected for with puromycin for 14 days. Expression of the Target Protein and controls are confirmed by immunoblot of 50 μg of cell lysate using anti-myc-tag polyclonal antibody (CST).
Proliferation: Polyclonal cell lines that over-express the Target Protein or control, wild-type HCT-116 cells, were plated in 96 well plate (10,000 or 5,000 cells per well) grown in standard media in both low serum (0.1% FBS) and high serum (10% FBS) conditions, respectively. After 48 hours, the cells are subjected to the WST-1 ([…]) assay. The WST-1 assay (Sigma) is a measure of the metabolic activity of group of cells. The higher the metabolic activity the higher the proliferation rate. Significant differences in proliferation are determined by comparing protein-expressing cell lines with a stable cell line of the empty expression vector (control) using ANOVA analysis.

The mark [4] stands for this setting: Low sera (continued), 0.5 uM, head 3 SD.
The mark [5] stands for this setting: Low sera (continued), 0.1 uM, head 4 SD.
Where [6] appears, read: 5 μM peptide, 24 hrs, vs vehicle control.

Consider “SEQ ID NO: 27193: ORF peptide; sequence only in Sequence Listing (LRFKVLLRVLFFMAPVPPQVFGQ; listed as Homo sapiens)”, for which the “z-score compared to vehicle control (peptides inducing significant apoptosis)” value in the experiment on U2OS cells [1] is recorded as “SEQ ID NO: 27193”. The “peptides inducing significant apoptosis (z-score vs vehicle control)” value in the experiment with HCT-116 cells is “SEQ ID NO: 27193”. In addition, the “peptides inducing significant apoptosis vs vehicle control” value in the experiment with Jurkat cells is reported as “SEQ ID NO: 27193”. Moreover, the “proliferation hit score, High sera” value in the experiment on HCT116 cells (0.5 uM, head 3 SD) worked out at 1.079 SD; with HCT116 cells (5 uM, head 3 sd) it was 0.8327 SD; in the experiment with U2OS cells [2] (5 uM, head 5 SD), 15.33 SD. The “proliferation hit score, Low sera” value with HCT116 cells (setting [4]) was 1.081 SD; in the experiment with HCT116 cells (Low sera, 5 uM, head 2 SD) it was 0.6897 SD; with U2OS cells [2] (setting [4]), 1.975 SD; with U2OS cells [2] (Low sera, 5 uM, head 2 SD), 2.319 SD.
Regarding “SEQ ID NO: 29485: ORF peptide; sequence only in Sequence Listing (MRSPLSASALLLWSSSVARAFSSPSLLMAVPSPTCSRY; listed as Homo sapiens)”, the “peptides inducing significant apoptosis (z-score vs vehicle control)” value in the experiment on HCT-116 cells is “SEQ ID NO: 29485”. The “peptides inducing significant apoptosis vs vehicle control” value with Jurkat cells is recorded as “SEQ ID NO: 29485”. The “proliferation hit score, Low sera” value was 2.026 SD and 1.922 SD in the experiment on U2OS cells [2] (setting [5]); 3.795 SD and 2.322 SD in the experiment on U2OS cells [2] (Low sera, 1 uM, head 5 SD); 5.612 SD and 4.323 SD in the experiment on U2OS cells [2] (Low sera, 10 uM, head 6 SD).
“SEQ ID NO: 34296: ORF peptide; sequence only in Sequence Listing (MFFCRNYGSFWFYVLSKMLSFFICLLIFVHLLLLSFLISDWPPPTGSAEHKYSG; listed as Homo sapiens)”: the “peptides inducing significant apoptosis vs vehicle control” value in the experiment with Jurkat cells is “SEQ ID NO: 34296”.
On to “SEQ ID NO: 36828: ORF peptide; sequence only in Sequence Listing (MAIFFFFCIIVSSLPTAELGTENACSTCLLNE; listed as Homo sapiens)”, for which, in the experiment with U2OS cells [1], the “z-score compared to vehicle control (peptides inducing significant apoptosis)” value is on record as “SEQ ID NO: 36828”. In the experiment with Jurkat cells, the “peptides inducing significant apoptosis vs vehicle control” value is “SEQ ID NO: 36828”.
Consider “SEQ ID NO: 37997: synthetically produced target protein, secreted tumor suppressor; sequence only in Sequence Listing (MSRLSLSWESLTNAIWPLDLQDIKGYLPNPLPQRVNLRKQILSISKEPN; listed as Homo sapiens)”, for which the basal apoptosis levels entry in the experiment on U2OS cells [1] (setting [6]) and with HCT-116 cells (setting [6]) was “increase in basal apoptosis levels” throughout. In the experiment on HCT116 cells (10 μM, 10% serum, 48 hours), the “proliferation (WST-1) vs irrelevant peptide or untreated cells” value is given as “significantly decreases proliferation”. Besides, the “proliferation hit score, High sera” value is −3.114 SD with HCT116 cells (0.1 uM, head 3 SD); −5.8 SD with HCT116 cells (1 uM, head 2 SD); −11.51 SD in the experiment on HCT116 cells (10 uM, head 4 SD); −5.9599 SD in the experiment on U2OS cells [2] (1 uM, head 5 SD); −13.23 SD in the experiment on U2OS cells [2] (10 uM, head 8 SD). The “proliferation hit score, Low sera” value in the experiment with HCT116 cells (Low sera, 1 uM, head 3 SD) was −3.015 SD; in the experiment on HCT116 cells (Low sera, 10 uM, head 3 SD) it was −6.915 SD; in the experiment on U2OS cells [2] (Low sera (continued), 0.1 uM, head 2 SD), −2.359 SD; with U2OS cells [2] (setting [5]), 1.922 SD; in the experiment on U2OS cells [2] (Low sera, 1 uM, head 5 SD), 0.3203 SD; with U2OS cells [2] (Low sera, 10 uM, head 6 SD) it was −16.09 SD.

B1: SEQ ID NO: 27000: ORF peptide; sequence only in Sequence Listing (peptide, listed as Homo sapiens)
chain: MNLNPRLRLQVISFHPHPKALAVTLLPALTQSLCLCMASCVYSGPKGFLFLFFPQTAQEKHMKNIT
Turning to B1, the “z-score compared to vehicle control (peptides inducing significant apoptosis)” value in the experiment with U2OS cells [1] was “SEQ ID NO: 27000”. The “peptides inducing significant apoptosis (z-score vs vehicle control)” value in the experiment on HCT-116 cells was “SEQ ID NO: 27000”. Moreover, the “peptides inducing significant apoptosis vs vehicle control” value with Jurkat cells is recorded as “SEQ ID NO: 27000”. Further, the “proliferation hit score, Low sera” value is 7.758 SD and 7.542 SD with U2OS cells [2] (setting [5]); 5.685 SD and 9.031 SD in the experiment on U2OS cells [2] (Low sera, 1 uM, head 5 SD).

B2: SEQ ID NO: 27301: target protein over-expressed (Myc-tagged) in stable HCT116 cell line; oncogene (protein, listed as Homo sapiens)
chain: MVEKSHPSSLPTLPQPLNHCPETYMLLSAAPSGASQLLSTLTLFLKKHRMDIRTISLRMLLSHTGKLAL
modifications: Myc tag
notes: oncogene
As for B2, the “proliferation (WST-1) on over-expression vs Empty Vector” value in experiment [3] (high serum (10% FBS)) and in experiment [3] (low serum (0.1% FBS)) was “significantly increases proliferation” each time.
